Data reported in patent US20260234188A1, “CHEMOKINE-BINDING PEPTIDES” (Oxford University Innovation Limited, priority 2022, published 2026).
“Also recorded” adds a separate entry of the source. Ends that are not written are not given here.

Legend:
[1] = biological target: T1, CCL8 (Homo sapiens, UniProt P80075); experiment: cell-based; details: for inhibition of cell migration: peptide 10 μM, chemokine at EC80, versus scrambled control HD2SCR
T1 construct: purchased Peprotech
T1 sequence (P80075 24-99): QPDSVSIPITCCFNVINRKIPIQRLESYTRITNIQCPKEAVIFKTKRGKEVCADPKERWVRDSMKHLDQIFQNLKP
Procedure: (§1) FIG. 2. […] BK1.2 is described in (Darlot, 2020). […] Chemokines used are indicated by the name, followed in parenthesis by the supplier code (P in supplier code indicates Peprotech). […] All experiments were performed at EC80 doses of indicated chemokine. Data are shown as box-whisker plots of three technical and three biological replicates. Statistically significant differences (compared to control, indicated by #), using Dunnett's test with correction for multiple comparisons, are indicated by asterisks: ****=P≤0.0001, ***=P≤0.001, **=P≤0.01, *=P≤0.05.
FIG. 3. […] Chemokines used are indicated by the name, followed in parenthesis by the supplier code (P in supplier code indicates Peprotech). […] All experiments were performed at EC80 doses of indicated chemokine.
(§2) Briefly, cell migration assays use THP1 cells (human monocyte) and primary human buffy coat white cells (consisting of neutrophil granulocytes, monocytes, and lymphocytes), and activated T-cells. THP1 cells and primary monocytes respond to CCL2, CCL3, CCL5, CCL8 and CXCL4, granulocytes to CXCL1 and CXCL8, activated T-cells to CXCL9/10/11. Assays are performed in 96-well Boyden chambers, and migrated cells counted and characterized using and ATTUNE Flow Cytometer as described. Triplicate assays are performed at the EC80 dose of each chemokine at 10 μM peptide concentration.
The J:CXCR1 cell line was generated by transfecting Jurkat cells by electroporation with PvuI-linearized plasmid D1398 and selecting with blasticidin (Sigma-Aldrich, Cat #203350, […]). […] J:CXCR1 cells were cultured in RPMI-1640 media (Gibco), supplemented with 10% FBS and 5 mM L-Glutamine with blasticidin. For J:CXCR1 migration assays, 300,000 cells/well were added to the top chamber of a 3 μm Transwell insert (Corning) in 50 μL of migration media (RPMI-1640, 0.5% FBS, 4 mM L-Glutamine, 0.05% DMSO). The bottom chamber contained 150 μL of chemokine, with or without peptide. Cells were migrated at 37° C. in 5% CO2 for 4 hours. […]

[2] = tested on: panel of up to 42 human chemokines; experiment: Phage-display next generation sequencing screen of overlapping hexadecapeptide libraries, chemokines displayed on streptavidin beads; format: binding; details: log2E greater than 5, chemokines named by first part of UniProt Entry Name, peptides binding complement C5a (control) excluded;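 note: chemokine listed when log2 fold enrichment exceeds 5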
Outline: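 Phage-display libraries of 55662 overlapping hexadecapeptides from tick and viral chemokine-binding proteins, human chemokines and chemokine receptors screened against up to 42 human chemokines, with hits found by next-generation sequencing. Peptides mapped to parent-protein position with log2 fold enrichment; regions of interest where cumulative residue log2 E exceeds the 95% upper CI of the protein median.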

[3] = tested on: panel of 24 biotinylated chemokines; experiment: Phage-display screen of HD2 NNK saturation mutagenesis library; format: binding, human; details: for Chemokines Bound log2E 1-5 / Chemokines Bound log2E > 5: HD2 saturation mutants, chemokines on streptavidin beads, UniProt entry names
Description: (§3) FIG. 7. Exemplar results from phage display screens using saturation mutagenesis. A phage-display library was constructed using the HD2 sequence, replacing each residue encoding codon with the degenerate sequence NNK. The 16 degenerate sequences (which also encoded the parental HD2 sequence) were pooled and cloned into display phage. […] Exemplar peptides were selected such that log 2 E for at least one chemokine was greater than 5, and log 2 E for binding to control (CO5, was less than zero). […] The fold enrichment of parental HD2 is also indicated.
as §3, with “A” for “FIG. 7. Exemplar results from phage display screens using saturation mutagenesis. A”
A molecular level understanding of binding mechanism is needed for development of peptides as therapeutics and is usually obtained from structural analyses. As HD2 binds many chemokines this becomes a challenging task, and we explored if we could elucidate this using phage display mutagenesis. The role of each residue in HD2 for binding was examined in phage-display. A library of HD2 mutations that had NNK substituted at each residue and performed phage-display selection against a panel of 24 biotinylated chemokines, in parallel, as described in Example 7. This strategy allowed us to evaluate the impact not only of Ala substitutions, but also conservative, hydrophilic and hydrophobic substitutions, and compare with binding of parental HD2 which is also included in the library. Ala substitution removes side-chains beyond the β-carbon and can be used to infer the role of side-chain functional groups without affecting conformational flexibility of the backbone. […] These residues are within the two motifs identified previously. Other notable residues identified were Y8 and P10. We next judged the impact of Ala mutation by calculating the change in log 2 E (Δlog 2 E) between the mutant and parental HD2. A positive value of Δlog 2 E indicates increased binding, and a negative value decreased binding compared to parental HD2. […] As may be seen, the log 2 E for the parental HD2 was ~0 in these analyses indicating lack of enrichment.
Oligonucleotide pools were amplified using primers: oligo_fwd: 5′-[…] and oligo_rev2: 5′-tcgtcaccctcggcgcctcctcoggatcctccacc. Oligonucleotide PCR products were cloned into plasmid prSTOP4Nsi using NEB Builder HiFi Assembly following instructions of the manufacturer. The vector pool was used to transform electrocompetent Invitrogen ElectroMAX™ DH5α-E™ cells. Plasmid DNA was harvested by MaxiPrep (GeneJet Plasmid Maxiprep Kit) and was transformed into SS320 phage display electrocompetent cells (Lucigen), following the manufacturer's protocol, resuspended in 950 μL recovery media for each electroporation, transferred to 50 mL Falcon tubes, 100 μL 1011 CFU/mL M13KO7 helper phage (NEB) added and shaken at 37° C., 220 RPM for 1 h. 1 mL recovery culture was added to 2YT medium containing +50 ug/mL carbenicillin and 25 ug/mL kanamycin, and grown overnight at 37C, 220 rpm. Phage was precipitated from the culture supernatant by adding 22.5 mL of supernatant to 4.5 mL 20% PEG 8000/2.5 M NaCl, incubating on ice for 30 min, and centrifuging at 10,000 RPM, 4° C. for 10 min, and resuspending phage in 1 ml of PBT, followed by centrifugation at 13000 RPM, 4° C., for 10 min. […]

[4] = tested on: CC and CXC chemokines; experiment: Chemokine-induced cell migration assays, pooled over chemokines (meta-analysis); format: cell-based, human; details: single HD2 mutations; nine CC and six CXC chemokines
Procedure: FIG. 16. Effect of HD2 alanine mutations on chemotaxis. […] All experiments were performed as three technical and three biological replicates, and individual data points are indicated, and coloured by the chemokine used. Statistically significant differences (compared to control, coloured blue), using Dunnett's test with correction for multiple comparisons, are indicated by asterisks: ****=P≤0.0001, ***=P≤0.001, **=P≤0.01, *=P≤[…] observations per group (three technical and three biological replicates for each chemokine). FIG. 16B, Faceted plots of change in median normalised cell count between alanine mutant and wild-type HD2 peptide obtained in cell migration assays (Y-axis, Δmedian normalised cell count) versus alanine mutated residue (X-axis). Chemokines used for each experiment are indicated in the strip to the right of each plot. Statistically significant differences compared to parental HD2 are shown as red dots. […] Scatterplot of Δmedian normalised cell count (Y-axis, obtained in cell migration assays) versus Δlog 2 E (obtained in phage-display experiments) for peptide:chemokine pairs. Individual data points indicate peptide chemokine pairs for which both cell migration and Δlog 2 E were available. Linear regression plot with 95% confidence interval, Spearman correlation coefficient (R) and statistical significance (p) are shown.
FIG. 19. […] All experiments were performed as at least three technical and three biological replicates, and individual data points are indicated, and coloured by the chemokine used, for all chemokines studied (n=16 chemokines). Statistically significant differences (compared to control, coloured blue), using Dunnett's test with correction for multiple comparisons, are indicated by asterisks: ****=P≤0.0001, ***=P≤0.001, **=P≤0.01, *=P≤0.05.
as §2
The J:CXCR1 cell line was generated by transfecting Jurkat cells by electroporation with PvuI-linearized plasmid D1398 and selecting with blasticidin (Sigma-Aldrich, Cat #203350, […]). […] J:CXCR1 cells were cultured in RPMI-1640 media (Gibco), supplemented with 10% FBS and 5 mM L-Glutamine with blasticidin. For J:CXCR1 migration assays, 300,000 cells/well were added to the top chamber of a 3 μm Transwell insert (Corning) in 50 μL of migration media (RPMI-1640, 0.5% FBS, 4 mM L-Glutamine, 0.05% DMSO). The bottom chamber contained 150 μL of chemokine, with or without peptide. Cells were migrated at 37° C. in 5% CO2 for 4 hours. The plate was incubated on a shaking platform for 10 minutes, 800 rpm, at 37° C., and 150 μL from the bottom of the plate transferred into a U-bottom plate containing 50 μL of migration media.

[5] = biological target: T2, CXCL9 (Homo sapiens, UniProt Q07325); experiment: CXCL9-induced activated T-cell migration, transwell assay; format: cell-based; details: HD2 mutant peptides 10 μM, chemokine at EC80
T2 construct: purchased Peprotech
T2 sequence (Q07325 23-125): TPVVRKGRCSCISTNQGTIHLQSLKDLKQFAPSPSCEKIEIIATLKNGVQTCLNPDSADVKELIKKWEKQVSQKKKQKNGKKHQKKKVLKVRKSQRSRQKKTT
Procedure: as §1, §2
(§4) The J:CXCR1 cell line was generated by transfecting Jurkat cells by electroporation with PvuI-linearized plasmid D1398 and selecting with blasticidin (Sigma-Aldrich, Cat #203350, […]). […] J:CXCR1 cells were cultured in RPMI-1640 media (Gibco), supplemented with 10% FBS and 5 mM L-Glutamine with blasticidin. For J:CXCR1 migration assays, 300,000 cells/well were added to the top chamber of a 3 μm Transwell insert (Corning) in 50 μL of migration media (RPMI-1640, 0.5% FBS, 4 mM L-Glutamine, 0.05% DMSO). The bottom chamber contained 150 μL of chemokine, with or without peptide. Cells were migrated at 37° C. in 5% CO2 for 4 hours. The plate was incubated on a shaking platform for 10 minutes, 800 rpm, at 37° C., and 150 μL from the bottom of the plate transferred into a U-bottom plate containing 50 μL of migration media. Cell counts were determined by Attune NxT Flow Cytometer Plate Reader (ThermoFisher), based on cell size parameters FSC-H/SSC-H. Experiments were performed in 3 technical and 3 biological replicates. THP-1 migration assays were carried out using methods known in the art. Activated T-cell assays were carried out using methods known in the art, with the following modifications in the isolation process. Peripheral blood cells were obtained from leucocyte cones (NHS Blood Transfusion Services), following which, T-cells were isolated using two rounds of human CD8+ T-cell isolation kit (480011, BioLegend). At day 10 after activation, T-cells were frozen at 20 E6 cells/ml in TexMACS medium supplemented with 10% DMSO (D2650, Sigma) in liquid nitrogen. Prior to use, activated T-cells were recovered for 24 hours in TexMACs medium at 0.3 E6 cells/ml and incubated at 37° C. in 5% CO2. Chemokine sources are described in Supplementary information Table 3. Statistical significances between control experimental groups was evaluated using Dunnett's test. IC50 experiments were performed at the EC80 dose of chemokine. EC80 was calculated by fitting a chemokine dose-response curve with 3 parameters (fixing the top to 100%). IC50 was calculated by fitting an inhibitor response curve with 4 parameters.

[6] = biological target: T3, CCL21 (Homo sapiens, UniProt O00585); experiment: CCL21-induced cell migration assay; format: cell-based; details: HD2 mutant peptides 10 μM, chemokine at EC80
T3 sequence (O00585 24-134): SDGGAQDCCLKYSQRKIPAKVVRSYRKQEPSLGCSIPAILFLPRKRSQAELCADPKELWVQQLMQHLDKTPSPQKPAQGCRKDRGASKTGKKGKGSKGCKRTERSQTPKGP
Procedure: FIGS. 24 and 25. Effect of exemplar mutant HD2 peptides on chemotaxis. Box-whisker plots showing the effect of the exemplar mutant HD2 peptides on cell migration induced by indicated human chemokines. All experiments were performed as at least three technical and between one to three biological replicates, and individual data points are indicated. […] Chemokine and cell type names are indicated. HD2SCR is a scrambled version of HD2 used as negative control. All peptides were at 10 μM final concentration and chemokines at EC80 doses. Statistically significant differences (compared to control, coloured blue), using Dunnett's test with correction for multiple comparisons, are indicated by asterisks: ****=P≤0.0001, ***=P≤0.001, **=P≤0.01, *=P≤0.05.
as §4
(§5) Migration assays using THP1, activated T-cell (ATC) and J:CXCR1 (Jurkat cells stably transfected with CXCR1 receptor) were performed as described previously. IC50 experiments were performed at the EC80 dose of chemokine. EC80 was calculated by fitting a chemokine dose-response curve with 3 parameters (fixing the top to 100%). IC50 was calculated by fitting an inhibitor response curve with 4 parameters. R-packages used were ggupset_0.3.0, DescTools_0.99.44, and drc_3.0-1.

[7] = biological target: T4, CXCL6 (Homo sapiens, UniProt P80162); experiment: cell-based; details: value in parentheses restating the molar figure
T4 sequence (P80162 38-114): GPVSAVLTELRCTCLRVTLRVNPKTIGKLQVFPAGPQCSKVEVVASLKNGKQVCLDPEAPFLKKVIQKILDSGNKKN
Procedure: FIG. 11. […] Technical replicates are shown as individual data points. […] The response curve (solid blue line) and its 95% confidence interval (grey ribbon) were calculated using a 4-parameter log-logistic plot.
as §4, §5

DEDYEDFFKPVTCYFA [HD540]
inhibition of cell migration [1]: inhibition
Chemokines Bound [2]: CCL18, CCL22,; also recorded: CCL5, CCL8

EDEDYEDFFKPVTCYF [HD845]
inhibition of cell migration [1]: inhibition
Chemokines Bound [2]: CCL18, CCL22,; also recorded: CCL5, CCL8

EEDDYDAYAPLTCYFT [HD2_D6]
Chemokines Bound log2E 1-5 [3]: CCL15, CCL17, CCL18, CCL19,; also recorded: CCL22, CCL28, CCL3, CCL4,; also recorded: CCL5, CCL8, X3CL1, CXL10,; also recorded: CXL11, CXL14, IL8
Chemokines Bound log2E > 5 [3]: CCL1, CCL11,; also recorded: CCL2, SDF1,; also recorded: CXL13
mean log 2 E compared to parental HD2 ([3]; over CC chemokines): significant improvement
mean log 2 E compared to parental HD2 ([3]; over all chemokines): significant improvement
chemotaxis inhibition compared with HD2, meta-analysis [4]: did not improve chemotaxis in any assay

EEDDYTAYAPITCYFT [HD2_I11]
Chemokines Bound log2E 1-5 [3]: CCL1, CCL11, CCL17, CCL18,; also recorded: CCL19, CCL2, CCL22, CCL28,; also recorded: CCL3, CCL4, CCL5, CCL8, X3CL1,; also recorded: CXL10, CXL11, SDF1, CXL13, IL8
Chemokines Bound log2E > 5 [3]: CCL15
mean log 2 E compared to parental HD2 ([3]; over CC chemokines): significant improvement
mean log 2 E compared to parental HD2 ([3]; over all chemokines): significant improvement
chemotaxis compared with the parental HD2 peptide [5]: significant reduction in chemotaxis
chemotaxis compared with the parental HD2 peptide [6]: significant reduction in chemotaxis

EEDDYTAYAPLTCYFT-NH2 [HD2, EEDDYTAYAPLTCYFT]
IC50 [7]: 140 µM
IC50 ([1]; value in parentheses restating the molar figure): 0.015 µM
